Drawing on PubChem BioAssay (NCI), this text covers GI50 and TGI for eight compounds.

Some test systems named below: SR leukemia; OVCAR-4 ovarian; IGROV1 ovarian; SF-268 CNS; NCI-H23 lung; LOX IMVI melanoma; SK-MEL-28 melanoma; SNB-75 CNS; MALME-3M melanoma; NCI-H522 lung.
Assay in all cases: NCI anticancer screen, dose series, 48 h

SMILES strings stand for the structures.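 1) Cells in 96-well plates. 2) Compound, 48 h, 5 concentrations. 3) Linear interpolation between surrounding doses. 4) Unreached endpoint = highest concentration. GI50 is the concentration that inhibits growth by half. TGI: total growth inhibition.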

As for `O=C(CCl)N1c2ccccc2Sc2ccc3ccccc3c21`, the GI50 with SR leukemia was 634 nM; in the experiment with OVCAR-4 ovarian it was 0.659 µM; with IGROV1 ovarian, 0.567 µM; with SF-268 CNS it was 1.64 µM; with NCI-H23 lung it was 1.18 µM; in the experiment with LOX IMVI melanoma, 143 nM. For the same compound, the GI50 was 1.65 µM with SK-MEL-28 melanoma, 1.16 µM in the experiment with SNB-75 CNS, 0.352 µM with MALME-3M melanoma and 509 nM in the experiment with NCI-H522 lung. In addition, the TGI in the experiment with SR leukemia is 9.74 µM; in the experiment with OVCAR-4 ovarian, 2.9 µM; with IGROV1 ovarian, 1.5 µM; in the experiment on SF-268 CNS, 3.16 µM; with NCI-H23 lung, 2.54 µM; in the experiment with LOX IMVI melanoma, 299 nM. Besides, the TGI in the experiment with SK-MEL-28 melanoma is 3.01 µM; in the experiment on SNB-75 CNS, 2.4 µM; in the experiment with MALME-3M melanoma it was 1.32 µM; with NCI-H522 lung, 1.1 µM.
In the case of `Cc1cc(NS(=O)(=O)c2ccc(NC(=O)c3cccc4c(Nc5ccc(S(=O)(=O)N=C(N)N)cc5)c5ccccc5nc34)cc2)no1`, the TGI is over 100 µM with SR leukemia; over 100 µM in the experiment on OVCAR-4 ovarian; over 100 µM with IGROV1 ovarian; over 100 µM in the experiment with SF-268 CNS; over 100 µM with NCI-H23 lung; over 100000 nM with LOX IMVI melanoma. The TGI in the experiment with SK-MEL-28 melanoma, in the experiment on SNB-75 CNS, in the experiment with MALME-3M melanoma and with NCI-H522 lung was over 100 µM in each case.
Turning to `O=C(O)c1cc2cc(OCc3ccccc3)c(OCc3ccccc3)cc2[nH]1`, the GI50 in the experiment with SR leukemia is 21800 nM; with OVCAR-4 ovarian, 34.9 µM; in the experiment with IGROV1 ovarian it was 24.9 µM; in the experiment on SF-268 CNS, 26.4 µM; in the experiment with NCI-H23 lung, 17.2 µM; in the experiment on LOX IMVI melanoma it was 18100 nM. Moreover, the GI50 was 19.5 µM with SK-MEL-28 melanoma, 17.3 µM in the experiment with SNB-75 CNS, 25.9 µM with MALME-3M melanoma and 24000 nM in the experiment on NCI-H522 lung. Further, the TGI with SR leukemia was over 100 µM; in the experiment on OVCAR-4 ovarian, over 100 µM; in the experiment on IGROV1 ovarian it was 54.2 µM; in the experiment on SF-268 CNS, 79.7 µM; in the experiment on NCI-H23 lung it was 38.1 µM; with LOX IMVI melanoma it was 35400 nM. Further, the TGI in the experiment with SK-MEL-28 melanoma amounted to 43.2 µM; in the experiment with SNB-75 CNS it was 55.6 µM; in the experiment on MALME-3M melanoma, 72.6 µM; in the experiment with NCI-H522 lung, 62.2 µM.
For the compound `O=C(O)c1ccc(N/C=C2\C(=O)c3ccccc3OC2O)cc1O` (stereo not given), the GI50 was 5.21 µg/mL with SR leukemia; 20.6 µg/mL in the experiment with OVCAR-4 ovarian; 12.8 µg/mL with IGROV1 ovarian; 21.8 µg/mL with SF-268 CNS; 19 µg/mL in the experiment on NCI-H23 lung; 22.5 µg/mL in the experiment with LOX IMVI melanoma. Moreover, the GI50 was 25.1 µg/mL with SK-MEL-28 melanoma, 17.7 µg/mL in the experiment with SNB-75 CNS, 10 µg/mL in the experiment with MALME-3M melanoma and 28 µg/mL with NCI-H522 lung. Also, the TGI was 41 µg/mL in the experiment on SR leukemia; over 150 µg/mL with OVCAR-4 ovarian; 47.3 µg/mL in the experiment with IGROV1 ovarian; 134 µg/mL in the experiment with SF-268 CNS; 58.4 µg/mL in the experiment on NCI-H23 lung; 73.3 µg/mL in the experiment with LOX IMVI melanoma. In addition, the TGI in the experiment with SK-MEL-28 melanoma is 69.2 µg/mL; in the experiment on SNB-75 CNS, 84.3 µg/mL; with MALME-3M melanoma, 38.9 µg/mL; in the experiment with NCI-H522 lung, 62.9 µg/mL.
Regarding `COc1cccc2c1C(=O)c1c(O)c3c(c(O)c1C2=O)C[C@@](O)(C(=O)CO)C[C@@H]3OC1C[C@H](N)[C@H](O)[C@H](C)O1` (stereo not given in full), the GI50 with SR leukemia is 5.58 nM; in the experiment with OVCAR-4 ovarian, 0.133 µM; with IGROV1 ovarian, 0.0901 µM; in the experiment on SF-268 CNS it was 0.0616 µM; in the experiment on NCI-H23 lung, 0.0484 µM; in the experiment on LOX IMVI melanoma, 17.8 nM. Besides, the GI50 with SK-MEL-28 melanoma is 0.0797 µM; in the experiment on SNB-75 CNS, 0.034 µM; in the experiment with MALME-3M melanoma it was 0.0462 µM; in the experiment with NCI-H522 lung, 33.4 nM. The TGI with SR leukemia came out at 0.826 µM; with OVCAR-4 ovarian, 2.9 µM; in the experiment on IGROV1 ovarian, 8.58 µM; in the experiment on SF-268 CNS it was 0.982 µM; in the experiment with NCI-H23 lung, 0.234 µM; in the experiment with LOX IMVI melanoma it was 181 nM. Besides, the TGI with SK-MEL-28 melanoma was 0.198 µM; in the experiment on SNB-75 CNS, 0.147 µM; with MALME-3M melanoma, 0.145 µM; with NCI-H522 lung, 0.317 µM.
As to `COC(=O)[C@]12CC[C@@H](C)[C@H](C)[C@@H]1C1=CC[C@@H]3[C@@]4(C)C=C(O)C(=O)[C@@]5(C)COC(=C54)C[C@@]3(C)[C@]1(C)CC2`, the GI50 with SR leukemia is 2690 nM; in the experiment with OVCAR-4 ovarian it was 8.32 µM; in the experiment with IGROV1 ovarian it was 8.42 µM; with SF-268 CNS, 13.3 µM; in the experiment on NCI-H23 lung, 4.19 µM; with LOX IMVI melanoma, 8850 nM. Also, the GI50 in the experiment on SK-MEL-28 melanoma is 16.4 µM; with SNB-75 CNS, 14.8 µM; in the experiment on MALME-3M melanoma, 15 µM; in the experiment on NCI-H522 lung, 2570 nM. In addition, the TGI in the experiment with SR leukemia turned out to be 8.77 µM; in the experiment with OVCAR-4 ovarian, 23.5 µM; in the experiment on IGROV1 ovarian, 29.6 µM; in the experiment with SF-268 CNS, 31.6 µM; in the experiment with NCI-H23 lung, 18.2 µM; in the experiment on LOX IMVI melanoma, 22400 nM. Moreover, the TGI in the experiment with SK-MEL-28 melanoma was found to be 38.9 µM; with SNB-75 CNS it was 43.1 µM; with MALME-3M melanoma, 32.4 µM; in the experiment on NCI-H522 lung, 9.17 µM.
As to `COc1ccc(Cl)cc1NC(=O)C(Br)C(Br)C(=O)O` (stereo not given), the GI50 in the experiment with SR leukemia was 3430 nM; in the experiment on OVCAR-4 ovarian, 6.36 µM; in the experiment on IGROV1 ovarian, 33.2 µM; in the experiment with SF-268 CNS, 4.33 µM; in the experiment with NCI-H23 lung, 11.9 µM; with LOX IMVI melanoma, 1020 nM. The GI50 in the experiment with SK-MEL-28 melanoma was 7.69 µM; with SNB-75 CNS, 26.6 µM; in the experiment with MALME-3M melanoma it was 9.88 µM; in the experiment on NCI-H522 lung it was 1910 nM. The TGI with SR leukemia was over 100 µM; in the experiment on OVCAR-4 ovarian, 60.6 µM; in the experiment with IGROV1 ovarian it was over 73.5 µM; in the experiment on SF-268 CNS it was 16.8 µM; in the experiment with NCI-H23 lung, 47.8 µM; in the experiment with LOX IMVI melanoma, 2520 nM. Besides, the TGI in the experiment with SK-MEL-28 melanoma was over 49.2 µM; in the experiment with SNB-75 CNS it was over 60.1 µM; in the experiment on MALME-3M melanoma, 28.8 µM; in the experiment with NCI-H522 lung, 5.45 µM.
Turning to `CO[C@@H]1/C=C(C)/C=C/[C@@H](C)/C=C(\C)C(=O)OC(/C(C)=C/C=C(\C)CNC(=O)[C@H](CO)NC=O)[C@@H](C)/C=C/C=C/[C@H](OC)CC/C=C(C)/C=C/C1` (stereo not given in full), the GI50 in the experiment on SR leukemia is under 5 nM; in the experiment on OVCAR-4 ovarian it was under 0.005 µM; in the experiment on IGROV1 ovarian, under 0.005 µM; in the experiment on SF-268 CNS, under 0.005 µM; in the experiment on NCI-H23 lung, under 0.005 µM; with LOX IMVI melanoma, under 5 nM. Moreover, the GI50 in the experiment on SK-MEL-28 melanoma is 0.00843 µM; in the experiment on SNB-75 CNS, 0.242 µM; in the experiment on MALME-3M melanoma, 0.0101 µM; in the experiment on NCI-H522 lung, under 5 nM. In addition, the TGI was over 11.9 µM with SR leukemia; over 50 µM in the experiment on OVCAR-4 ovarian; 9.15 µM in the experiment on IGROV1 ovarian; 1.09 µM in the experiment with SF-268 CNS; 0.266 µM in the experiment on NCI-H23 lung; under 5 nM in the experiment with LOX IMVI melanoma. Moreover, the TGI is 11.4 µM in the experiment with SK-MEL-28 melanoma, over 25.8 µM with SNB-75 CNS, 0.0261 µM in the experiment on MALME-3M melanoma and 18.7 µM in the experiment on NCI-H522 lung.
